Data published in patent publication US5104884A, “Triazolyl quinoline derivatives” (Alkaloida Vegyeszeti Gyar, priority 1985, dated 1992).
Where two headings read alike, the source gives them in different places.

Columns and labels:
[1] = system: Erysiphe graminis f. sp. tritici; assay: antifungal effect on Erysiphe graminis (powdery mildew on wheat plants, glasshouse); format: in vivo; details: Blumeria graminis; for inhibition at 50 µg/mL: 50 μg/ml; for inhibition at 100 µg/mL: 100 μg/ml; for inhibition at 150 µg/mL: 150 μg/ml; for inhibition at 200 µg/mL: 200 μg/ml; for inhibition at 400 µg/mL: 400 μg/ml; for inhibition at 25 µg/mL: 25 μg/ml
Method: The compounds of the general Formula (I) are particularly effective against powdery mildew. In Table IV the activity of some compounds of the general […] against Erysiphe graminis f. sp. tritici strain are disclosed.
The following test method is used: Glasshouse conditions: temperature 20° C.; relative humidity 80%; strength of illumination 6000 lux. The test plants MV-9 Automn wheat are cultivated in pots diameter 20 cm in a 1:1 mixture of sand and perlite. The average number of plants per pot amounts to 180, the height of the plants is 6-7 cm. About 8 ml of the aqueous suspension of the test compound is applied onto the plants with the aid of a sprayer.
The rate of infectedness is determined after 8 days. Activity is calculated from the percental inhibition values. As control commercial products Fundazol 50 WP and Karathene LC 50 are used.

[2] = hot (56° C.) plate test on mice (analgesic effect); format: in vivo, male and female CFLP strain mice; details: Mus musculus, po, 1 h, read-out: Lengthening of reaction time in %; for change in vivo at 25 mg/kg: 25 mg/kg p.o.; for change in vivo at 50 mg/kg: 50 mg/kg p.o.; for change in vivo at 100 mg/kg: 100 mg/kg p.o.; for change in vivo at 12.5 mg/kg: 12.5 mg/kg p.o.
Method: The analgesic effect of the compounds of the present invention is tested according to the hot (56° C.) plate test on male and female CFLP strain mice weighing 18-22 g. The point of time of the appearence of the deterring reaction Abwehrreaktion is determined and related to the latent time measured on the control group Woolfe and McDonald 1944. At least 10 animals are used per dose. […] The test is carried out on separated male Wistar rats weighing 180-210 g and fasted for 16 hours. The test compounds are suspended in 1% carboxy methyl cellulose and administered orally in a dose of 10 ml/kg.

[3] = adjuvant induced arthritis in rats, method of Newbold; format: in vivo, male Wistar rats; details: Rattus norvegicus, po, 504 h, read-out: Percental inhibition of the growth of paw volume, on the 21st day; for inhibition in vivo at 25 mg/kg: 25 mg/kg p.o. daily for two weeks
Method: According to the method of Newbold 0.1 ml of Freund complet adjuvant (Difco Lab. Mich. […] The volume of the hind paws is measured before and 21 days after the administration of the adjuvant with the aid of a mercury plethysmometer. […] In Table II the "percental inhibition of the growth of paw volume" relates to the value determined on the 21st day. […] The tests show furthermore that the compounds of the present invention are active not only in healing morphological deformations but effect in a desirable and useful manner the functional condition and fitness of the feet, moreover the general physical state and condition of the animals, too.

[4] = carrageenin edema inhibition in rats (antiphlogistic effect), Winter method; format: in vivo, male Wistar rats; details: Rattus norvegicus, po; for inhibition in vivo at 12.5 mg/kg: 12.5 mg/kg p.o.; for inhibition in vivo at 25 mg/kg: 25 mg/kg p.o.; for inhibition in vivo at 100 mg/kg: 100 mg/kg p.o.; for inhibition in vivo at 50 mg/kg: 50 mg/kg p.o.
Method: Thus the orally administered compounds of the general Formula (I) efficiently reduce acute inflammatory processes. According to the method of Winter [Proc. Soc. Exp. Biol. Med. 111, 544 (1962)] carrageenin edema is induced and evaluated on male Wistar rats fasted for 16 hours body weight 160-180 g. Percental inhibition is calculated from the average edema values of the groups treated with the test compound on the one hand and with carrier carboxy methyl cellulose, CMC; control on the other. ED50 values are determined by means of regression analysis of the inhibition values. The test compounds are administered through a stomach canule in the form of a 1% carboxy methyl cellulose (CMC) suspension, one hour before introducing the carrageenin injection.

[5] = ulcerogenic effect (stomach haemorrhage and ulcers); format: in vivo, male Wistar rats; details: rat, po, acute test, rats, five hours after treatment, read-out: UD50
Method: Five hours after treatment the animals are sacrificed and their stomachs are placed into a 2.5% formaline solution. The number and rate of punctiform haemorrhage and ulcers is evaluated according to the following scale:
1=some punctiform haemorrhage (<10);
2=diffuse haemorrhage or small ulcer (<2 mm);
3=two or more minor small ulcer (<2 mm);
4=one or more large ulcer (>2 mm).

[6] = rats, read-out: Percental inhibition of paw volume
[7] = carrageenin edema, rats, p.o., regression analysis, read-out: ED50
[8] = read-out: Percental inhibition of paw volume

Structure (SMILES)	change in vivo at 25 mg/kg [2]	change in vivo at 50 mg/kg [2]	change in vivo at 100 mg/kg [2]	inhibition in vivo at 25 mg/kg [3]	inhibition in vivo at 12.5 mg/kg [4, 6]	inhibition in vivo at 25 mg/kg [4, 6]	inhibition in vivo at 100 mg/kg [4, 6]	ED50 [4, 7]	inhibition in vivo at 50 mg/kg [4, 6]	further results
Clc1ccc2c(-n3cncn3)ccnc2c1 [Compound 1, 4-(1H-1,2,4-triazole-1-yl)-7-chloro-quinoline]										inhibition at 37.5 µg/mL ([1]; 37.5 μg/ml): 50.6%; inhibition at 50 µg/mL [1]: 72.6%; inhibition at 75 µg/mL ([1]; 75 μg/ml): 83%; inhibition at 100 µg/mL [1]: 85.3%; inhibition at 150 µg/mL [1]: 36.8%; inhibition at 200 µg/mL [1]: 90.1%; inhibition at 400 µg/mL [1]: 99.6%
Cc1cc(-n2cncn2)c2cccc(C)c2n1 [Compound 6, 4-(1H-1,2,4-triazole-1-yl)-2,8-dimethyl-quinoline]										inhibition at 25 µg/mL [1]: 49.2%; inhibition at 50 µg/mL [1]: 71.6%; inhibition at 100 µg/mL [1]: 85.1%; inhibition at 200 µg/mL [1]: 89.5%; inhibition at 400 µg/mL [1]: 99.4%
COc1cccc2c(-n3cncn3)cc(C)nc12 [Compound 8]										inhibition at 25 µg/mL [1]: 42.1%; inhibition at 50 µg/mL [1]: 70.9%; inhibition at 100 µg/mL [1]: 82%; inhibition at 150 µg/mL [1]: 84.1%; inhibition at 200 µg/mL [1]: 91.9%; inhibition at 400 µg/mL [1]: 98.8%
Cc1cc(-n2cncn2)c2cccc(Cl)c2n1 [Compound 10]										inhibition at 25 µg/mL [1]: 20.3%; inhibition at 50 µg/mL [1]: 42.8%; inhibition at 100 µg/mL [1]: 76.4%; inhibition at 200 µg/mL [1]: 92.7%; inhibition at 400 µg/mL [1]: 90.1%
Cc1cc(-n2cncn2)c2ccc(Cl)c(Cl)c2n1 [Compound 22]										inhibition at 25 µg/mL [1]: 40.8%; inhibition at 50 µg/mL [1]: 67.7%; inhibition at 100 µg/mL [1]: 79.8%; inhibition at 200 µg/mL [1]: 93%; inhibition at 400 µg/mL [1]: 96.9%
Cc1cc(Sc2nc[nH]n2)c2cccc(Cl)c2n1 [Compound 46]	7%	18%	38%	28.1%						
Cc1nc(Sc2ccnc3cc(Cl)ccc23)n[nH]1 [Compound 61]	20%	22%	26%	38.2%	29%	37%	58%	60.9 mg/kg		
Cc1cc(Sc2n[nH]c(C)n2)c2ccccc2n1 [Compound 62]	19%	30%	38%	40.3%	18%	51%	69%	38.4 mg/kg	59%	change in vivo at 12.5 mg/kg [2]: 17%
Cc1cc(Sc2n[nH]c(C)n2)c2cccc(C)c2n1 [Compound 64]	17%	39%	44%	40.6%	15%	27%	65%	59.1 mg/kg	44%	
Cc1cc(Sc2n[nH]c(C)n2)c2cccc(C(F)(F)F)c2n1 [Compound 67]				32.8%						
Cc1cc(Sc2n[nH]c(C)n2)c2ccc(Cl)c(C)c2n1 [Compound 69]	13%	24%	30%	35.2%	27%	33%	86%	35 mg/kg	52%	
CCc1nc(Sc2cc(C)nc3ccc(C)cc23)n[nH]1 [Compound 74]	19%	26%	43%		26%	55%		25.7 mg/kg	69%	
Cc1cc2ccccc2nc1-n1cncn1 [Compound 83, 2-(1H-1,2,4-triazole-1-yl)-3-methyl-quinoline]	16%	28%	59%	46.7%	21%	63%	72%	28.1 mg/kg	70%	
Cc1ccc2cc(C)c(-n3cncn3)nc2c1 [Compound 85]				28.4%						
Cc1cc2ccccc2nc1Sc1nc[nH]n1 [Compound 107]	34%	41%	88%	17.8%	29%	40%	74%	30.6 mg/kg	70%	
Cc1ccc2nc(Sc3nc[nH]n3)c(C)cc2c1 [Compound 108]	34%	46%	46%	35.2%	19%	45%	70%	38.5 mg/kg	61%	
Cc1ccc2cc(C)c(Sc3nc[nH]n3)nc2c1 [Compound 109]				36.7%						
Cc1cc2cccc(C)c2nc1Sc1nc[nH]n1 [Compound 110]	21%	34%	52%	32.1%	10%	42%	61%	51.4 mg/kg	46%	
CCc1nc(Sc2nc3ccc(C)cc3cc2C)n[nH]1 [Compound 138]	25%	37%	82%	35.2%						
COc1ccc2c(c1)c(CC(=O)O)c(C)n2C(=O)c1ccc(Cl)cc1 [Indomethacin, reference compound]										ED50 [4]: 4.1 mg/kg; inhibition in vivo at 1 mg/kg [4, 8]: 28%; inhibition in vivo at 2 mg/kg [4, 8]: 40%; inhibition in vivo at 4 mg/kg [4, 8]: 47%; inhibition in vivo at 8 mg/kg [4, 8]: 64%; inhibition in vivo at 12 mg/kg [4, 8]: 67%; TD50 at 5 h [5]: 6.3 mg/kg
COc1ccc2cc([C@H](C)C(=O)O)ccc2c1 [Naproxen, reference compound]	31%	45%	49%	28.4%	33%	49%	71%	28.7 mg/kg	64%	change in vivo at 12.5 mg/kg [2]: 25%; inhibition in vivo at 12.5 mg/kg ([3]; 12.5 mg/kg p.o.): 16.8%
CCCCC1C(=O)N(c2ccccc2)N(c2ccccc2)C1=O [Phenylbutazon, reference compound]			29%			21%	45%	101 mg/kg	42%	change in vivo at 150 mg/kg ([2]; 150 mg/kg p.o.): 42%; change in vivo at 200 mg/kg ([2]; 200 mg/kg p.o.): 44%; inhibition in vivo at 50 mg/kg ([3]; 50 mg/kg p.o.): 18.5%; inhibition in vivo at 200 mg/kg ([4]; 200 mg/kg p.o., rats, read-out: Percental inhibition of paw volume): 66%
